{"source": "patent US20240156790A1", "about": "“COMPOUNDS, COMPOSITIONS, AND METHODS FOR MODULATING FERROPTOSIS AND TREATING EXCITOTOXIC DISORDERS” (THE TRUSTEES OF COLUMBIA UNIVERSITY IN THE CITY OF NEW YORK, priority 2018, published 2024)", "key": {"[1]": {"assay": "In vivo pharmacokinetic study of TH-4-55-2 in drinking water (four days)", "design": "species or system R6/2 mice", "settings": "both sexes, R6/2, mouse, brain, oral, 20-30 mg/kg/day, 4-day treatment, read-out: concentration in brain samples", "protocol": "TH-4-55-2 and 42 uM Citric acid were dissolved in 5% DMSO, 5% ethanol, and 90% PBS rendering a final concentration of 0.29 mg/mL Th-4-55-2 in drinking water. The mice drink ˜2 mL water per day, and the resulting dosage was around 20-30 mg/kg/day. C57BL/6 mice at ˜8 weeks of age were treated using drinking water daily for four days. 6 mice were randomly picked, weighed daily, the weight recorded, and the change in body weight compared to the baseline, pre-injection weight was calculated. Any mouse that lost more than 20% of its baseline body weight for three consecutive days was euthanized prior to the completion of the study. Mice were euthanized by CO2 asphyxiation for 3 min after administration. Approximately 0.5 mL of blood was collected via cardiac puncture and immediately put in K3 EDTA microtubes and kept on ice. Brains were harvested, placed in Eppendorf tubes, and frozen on dry ice. […]\nPrior to LC-MS analysis, the samples were resuspended in 100 μL methanol and centrifuged for 5 minutes at 14,000×g at 4° C. The supernatant was analyzed via SYNAPT High Resolution Mass Spectrometer.\nSamples from animal studies were analyzed via UPLC-MS using a Waters SYNAPT XS Mass spectrometer equipped with an Acquity UPLC. […] All samples were injected twice and the base peak chromatogram was integrated and quantified by a standard curve concurrently ran using MassLynx software and exported. […]"}, "[2]": {"settings": "Mouse; value marked ^1, Hofmans et al., 2016; cited from earlier work"}, "[3]": {"assay": "PHB4082 IP, IV Study (cyclodextrin/PEG/tween vehicle)", "type": "in vivo, C57BL/6 mice", "settings": "both sexes, C57BL/6, mouse; for concentration at 2 h / concentration at 4 h: 10 mg/kg", "protocol": "C57BL/6 mice (8-weeks of age and ˜25 g weight) were weighed before injection and divided into groups of two male and female mice per cage. PHB4082 was dissolved in 5% DMSO/95% of 1:1 [(65% v/v of 25% w/v 2-hydroxypropyl-3-cyclodextrin (Cayman Chemical) dissolved in 20% EtOH, 30% v/v Poly(ethylene glycol)-400 (Sigma Aldrich 202398), 5% v/v Tween 80 (Fluka 59924)):MilliQ water] to create a 2 mg/mL solution. The same formulation without PHB4082 was used as a vehicle control. The solution was sterilized using a […] Steriflip filter unit (Thomas Scientific 1189Q46). Mice were dosed IP, and IV routes of administration and euthanized by CO2 asphyxiation for 3 min at 2 and 4 h after administration. To ensure that the vehicle was well-tolerated, four mice for each timepoint were treated with vehicle and euthanized 4 h and 24 h after administration. ˜0.5 mL of blood was collected via cardiac puncture and immediately put in K3 EDTA microtubes ([…] 41.1504.105) and kept on ice. Organs were harvested, placed in Eppendorf tubes, and frozen on dry ice. Blood samples were centrifuged for 10 min at 2,100×g at 4° C., then plasma was transferred to a clean tube and frozen on dry ice. Organ samples were weighed and placed in hard tissue homogenizing tubes (Omni International 19-628) and a volume of DEPC-treated nuclease-free water (IBI Scientific IB42200) was added to make a 500 mg/mL solution and homogenized using the Omni Bead Ruptor 4 at speed 5 for 30 seconds. Compound was extracted from plasma or organ homogenate by adding 900 μL acetonitrile to 100 μL plasma or organ homogenate. Samples were mixed by vortexing and allowed to extract overnight at 4° C. prior to mixing for at least 5 min by rotating at room temperature, vortexing, and sonicating for at least 30 second prior to centrifugation for 10 min at 4,000×g and 4° C. The supernatant was then transferred to a glass vial and analyzed by UPLC-MS described below. The base peak chromatogram was integrated and quantified by standard curve concurrently ran.\nTo determine whether PHB4082 accumulated in brain preferentially over plasma, the log10(Brain/Plasma) ratio was calculated for each time-point with a log10(Brain/Plasma) >0 indicating preferential accumulation in brain over plasma. We observed that PHB4082 did slightly accumulate in brain over plasma as time progressed (FIG. 21B); however, at the time-point where PHB4082 preferentially accumulated in brain, the difference in concentration in the brain compared to plasma was low, indicated by the near 0 log values."}, "[4]": {"assay": "GSH adduct formation (GSH trapping) assay", "type": "in vitro ADME", "description": "We then tested PHB4082 in a GSH adduct formation assay and the Ames test."}, "[5]": {"settings": "brain, IP Administration, read-out: [PHB4082]brain"}, "[6]": {"settings": "brain, IV Administration, read-out: [PHB4082]brain"}, "[7]": {"settings": "plasma, IP Administration, read-out: [PHB4082]plasma"}, "[8]": {"settings": "plasma, IV Administration, read-out: [PHB4082]plasma"}}, "note": "Entries after “also recorded” stand apart in the source; their conditions may differ. Where two headings read alike, the source gives them in different places."}
{"smiles": "CCC(CC)Nc1cc(-c2nc(C)no2)cnc1NC1CCCCC1", "note": "[TH-4-55-2, N^2-cyclohexyl-5-(3-methyl-1,2,4-oxadiazol-5-yl)-N^3-(pentan-3-yl)pyridine-2,3-diamine]", "values": [{"measurement": "concentration at 4 days", "setting": "[1]", "result": "1500 to 33000", "unit": "nM"}]}
{"smiles": "CCOC(=O)c1ccc(NC2CCCCC2)c(N)c1", "note": "[Fer-1, Ferrostatin-1, reference compound]", "values": [{"measurement": "Microsomal Stability t1/2", "setting": "[2]", "result": "1.9 ± 0.6", "unit": "min"}]}
{"smiles": "Cc1noc(-c2ccc(NC3CCCCC3)c(NC3CCCCC3)c2)n1", "note": "[PHB4082, N1,N2-dicyclohexyl-4-(3-methyl-1,2,4-oxadiazol-5-yl)benzene-1,2-diamine]", "values": [{"measurement": "log10 Kp (brain/plasma)", "setting": "[3]; brain and plasma, other: intraperitoneally and intravenously, 10 mg/kg intraperitoneally and intravenously", "result": "< 0"}, {"measurement": "concentration at 2 h", "setting": "[3]; [5]", "result": "114 ± 21", "unit": "nM"}, {"measurement": "concentration at 4 h", "setting": "[3]; [5]", "result": "99 ± 62", "unit": "nM"}, {"measurement": "concentration at 2 h", "setting": "[3]; [6]", "result": "557 ± 245", "unit": "nM"}, {"measurement": "concentration at 4 h", "setting": "[3]; [6]", "result": "176 ± 76", "unit": "nM"}, {"measurement": "concentration at 4 h", "setting": "[3]; [7]", "result": "306 ± 379", "unit": "nM"}, {"measurement": "concentration at 2 h", "setting": "[3]; [8]", "result": "634 ± 359", "unit": "nM"}, {"measurement": "concentration at 4 h", "setting": "[3]; [8]", "result": "281 ± 284", "unit": "nM"}, {"measurement": "concentration at 2 h", "setting": "[3]; [7]", "result": "957 ± 693", "unit": "nM"}, {"measurement": "GSH adduct formation / trapping result", "setting": "[4]", "result": "positive in a GSH trapping assay; also recorded: positive in the GSH adduct formation assay"}]}
